# According to ChEMBL document CHEMBL4406848, “Novel water soluble BODIPY compounds: Synthesis, photochemical, DNA interaction, topoisomerases inhibition and photodynamic activity properties” (Eur J Med Chem, 2019):
# Active and inactive are the calls of the source. No cut-off for these calls is given here.
# Key:
# HCT-116 [1] = experiment: Phototoxicity against human HCT116 cells assessed as cell viability at 10 uM incubated for 24 hrs under 17.5 mW/cm2 light irradiation by MTT assay relative to control; type: functional; details: HCT-116, light or radiation study, read-out: Activity
# Calf thymus DNA [2] = experiment: Binding affinity to calf thymus DNA assessed as binding constant incubated for 10 mins by UV-visible spectrophotometry; type: nucleic-acid assay; details: Bos taurus
# HCT-116 [3] = experiment: Cytotoxicity against human HCT116 cells assessed as cell viability at 0.5 and 1 uM incubated for 24 hrs in dark by MTT assay; type: functional, cell-based
# [4] = molecular target: T1, DNA topoisomerase 1 (Homo sapiens) (UniProt P11387); experiment: Inhibition of recombinant human topoisomerase 1 at 12.50 uM incubated for 1 hr by ethidium bromide staining based agarose gel electrophoresis method relative to control
# T1 sequence (whole entry): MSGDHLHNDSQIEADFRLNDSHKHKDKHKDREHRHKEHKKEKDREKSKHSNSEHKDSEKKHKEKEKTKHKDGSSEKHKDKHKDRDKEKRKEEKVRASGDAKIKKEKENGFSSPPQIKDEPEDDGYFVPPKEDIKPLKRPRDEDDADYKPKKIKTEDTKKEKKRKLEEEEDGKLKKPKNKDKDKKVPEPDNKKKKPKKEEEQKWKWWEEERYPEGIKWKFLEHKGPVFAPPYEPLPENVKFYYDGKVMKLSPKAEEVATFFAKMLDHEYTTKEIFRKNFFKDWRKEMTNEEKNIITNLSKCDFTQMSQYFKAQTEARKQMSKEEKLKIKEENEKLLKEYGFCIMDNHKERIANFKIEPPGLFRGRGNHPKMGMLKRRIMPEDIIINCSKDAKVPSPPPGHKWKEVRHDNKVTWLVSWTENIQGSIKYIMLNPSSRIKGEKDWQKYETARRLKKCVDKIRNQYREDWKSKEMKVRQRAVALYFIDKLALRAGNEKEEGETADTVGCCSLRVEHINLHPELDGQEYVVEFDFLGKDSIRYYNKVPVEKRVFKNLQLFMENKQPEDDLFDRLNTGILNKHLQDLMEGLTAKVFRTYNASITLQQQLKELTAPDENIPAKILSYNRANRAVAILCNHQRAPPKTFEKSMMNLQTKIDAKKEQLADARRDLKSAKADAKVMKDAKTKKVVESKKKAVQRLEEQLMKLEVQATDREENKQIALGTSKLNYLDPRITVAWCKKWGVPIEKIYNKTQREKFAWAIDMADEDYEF
# HCT-116 [5] = experiment: Phototoxicity against human HCT116 cells assessed as cell viability at 100 uM incubated for 24 hrs under 17.5 mW/cm2 light irradiation by MTT assay relative to control; type: functional; details: HCT-116, light or radiation study, read-out: Activity
# [6] = molecular target: T2, DNA topoisomerase II (Homo sapiens) (UniProt P11388+Q02880); experiment: Inhibition of recombinant human topoisomerase 2 assessed as supercoiled DNA at 50 uM incubated for 1 hr by ethidium bromide staining based agarose gel electrophoresis method relative to control; type: protein assay; set-up: scale not given: the % may be the effect or the level left
# HCT-116 [7] = experiment: Induction of apoptosis in human HCT116 cells assessed as necrotic cells at 10 uM incubated for 24 hrs in presence of irradiation by annexin V FITC and propidium iodide based flow cytometry (reference value: 0.2 %); type: functional
# [8] = molecular target: T1, DNA topoisomerase 1 (Homo sapiens); experiment: Inhibition of recombinant human topoisomerase 1 at 50 uM incubated for 1 hr by ethidium bromide staining based agarose gel electrophoresis method relative to control
# [9] = molecular target: T2, DNA topoisomerase II (Homo sapiens); experiment: Inhibition of recombinant human topoisomerase 2 at 50 uM incubated for 1 hr by ethidium bromide staining based agarose gel electrophoresis method relative to control; type: protein assay
# [10] = Photostability of compound in TBS assessed as percentage of photodegradation measured every 10 mins for 1 hr at 17.5 mW/cm'2 irradiation by UV-visible spectrophotometry
# HCT-116 [11] = experiment: Phototoxicity against human HCT116 cells assessed as cell viability at 50 uM incubated for 24 hrs under 17.5 mW/cm2 light irradiation by MTT assay relative to control; type: functional; details: HCT-116, light or radiation study, read-out: Activity
# DNA [12] = experiment: Induction of Escherichia coli plasmid pBR322 DNA cleavage at 3.125 to 25 uM incubated for 1 hr in dark by agarose gel electrophoresis; type: nucleic-acid assay
# DNA [13] = experiment: Induction of Escherichia coli plasmid pBR322 DNA cleavage assessed as decrease in supercoiled DNA at 3.125 uM in presence of light irradiation and incubated for 1 hr by agarose gel electrophoresis relative to control; type: nucleic-acid assay; set-up: scale not given: the % may be the effect or the level left
# [14] = molecular target: T1, DNA topoisomerase 1 (Homo sapiens); experiment: Inhibition of recombinant human topoisomerase 1 at 25 uM incubated for 1 hr by ethidium bromide staining based agarose gel electrophoresis method relative to control
# HCT-116 [15] = experiment: Phototoxicity against human HCT116 cells assessed as reduction in cell viability incubated for 24 hrs under 17.5 mW/cm2 light irradiation by MTT assay; type: functional, cell-based; details: HCT-116, light or radiation study
# HCT-116 [16] = experiment: Cytotoxicity against human HCT116 cells assessed as cell viability at 1 uM incubated for 24 hrs in dark by MTT assay relative to control; type: functional; details: HCT-116, 24 h, read-out: Activity
# HCT-116 [17] = experiment: Cytotoxicity against human HCT116 cells assessed as cell viability incubated for 24 hrs in dark by MTT assay; type: functional, cell-based; details: for IC50: HCT-116, 24 h
# HCT-116 [18] = experiment: Induction of apoptosis in human HCT116 cells assessed as early apoptotic cells at 10 uM incubated for 24 hrs in presence of irradiation by annexin V FITC and propidium iodide based flow cytometry (reference value: 3.4 %); type: functional
# [19] = Induction of singlet oxygen generation in DMSO solution assessed as singlet oxygen quantum yield by measuring reduction in DPBF irradiated with 650 nanometer laser light; type: functional
# HCT-116 [20] = experiment: Cytotoxicity against human HCT116 cells assessed as cell viability at 5 uM incubated for 24 hrs in dark by MTT assay relative to control; type: functional; details: HCT-116, 24 h, read-out: Activity
# [21] = molecular target: T2, DNA topoisomerase II (Homo sapiens); experiment: Inhibition of recombinant human topoisomerase 2 at 12.5 uM incubated for 1 hr by ethidium bromide staining based agarose gel electrophoresis method relative to control; type: protein assay
# HCT-116 [22] = experiment: Induction of apoptosis in human HCT116 cells assessed as viable cells at 10 uM incubated for 24 hrs in presence of irradiation by annexin V FITC and propidium iodide based flow cytometry (reference value: 94.8 %); type: functional; details: HCT-116, light or radiation study, read-out: Activity
# HCT-116 [23] = experiment: Cytotoxicity against human HCT116 cells assessed as cell viability at 10 uM incubated for 24 hrs in dark by MTT assay relative to control; type: functional; details: HCT-116, 24 h, read-out: Activity
# HCT-116 [24] = experiment: Induction of apoptosis in human HCT116 cells assessed as late apoptotic cells at 10 uM incubated for 24 hrs in presence of irradiation by annexin V FITC and propidium iodide based flow cytometry (reference value: 1.6 %); type: functional
# Calf thymus DNA [25] = experiment: Binding affinity to calf thymus DNA assessed as percentage of hypochromicity incubated for 10 mins by UV-visible spectrophotometry; type: nucleic-acid assay; details: Bos taurus
# HCT-116 [26] = experiment: Cytotoxicity against human HCT116 cells assessed as cell viability at 0.5 uM incubated for 24 hrs in dark by MTT assay relative to control; type: functional; details: HCT-116, 24 h, read-out: Activity
# HCT-116 [27] = experiment: Phototoxicity against human HCT116 cells assessed as cell viability at 5 uM incubated for 24 hrs under 17.5 mW/cm2 light irradiation by MTT assay relative to control; type: functional; details: HCT-116, light or radiation study, read-out: Activity
# Calf thymus DNA [28] = experiment: Competitive binding affinity to calf thymus DNA assessed as change in viscosity incubated for 10 mins by viscometer; type: nucleic-acid assay; details: Bos taurus
Structure (SMILES),viability at 10 µM (HCT-116 [1]) [%],Kb (Calf thymus DNA [2]),Activity (HCT-116 [3]),inhibition [4] [%],viability at 100 µM (HCT-116 [5]) [%],Activity [6] [%],Activity (HCT-116 [7]) [%],inhibition [8] [%],inhibition [9] [%],Drug degradation [10] [%],viability at 50 µM (HCT-116 [11]) [%],Activity (DNA [12]),Activity (DNA [13]) [%],inhibition [14] [%],IC50 (HCT-116 [15]) [µM],viability at 1 µM (HCT-116 [16]) [%],IC50 (HCT-116 [17]) [µM],Activity (HCT-116 [18]) [%],Activity [19],viability at 5 µM (HCT-116 [20]) [%],also measured
CC1=CC(/C=C/c2ccc(OCCCc3ccc[n+](C)c3)c(OCCCc3ccc[n+](C)c3)c2)=[N+]2C1=C(c1ccc(OCCCc3ccc[n+](C)c3)c(OCCCc3ccc[n+](C)c3)c1)c1c(C)cc(/C=C/c3ccc(OCCCc4ccc[n+](C)c4)c(OCCCc4ccc[n+](C)c4)c3)n1[B-]2(F)F.[I-].[I-].[I-].[I-].[I-].[I-],99,1.59 ×10³ /M,inactive,89.1,66,87.7,0.1,89.9,61.5,18.7,85,inactive,58.5,89.4,> 100,100,> 100,3.3,0.62,96,inhibition [21]: 56.4%; viability at 10 µM (HCT-116 [22]): 95.5%; viability at 10 µM (HCT-116 [23]): 96%; Activity (HCT-116 [24]): 1%; Activity (Calf thymus DNA [25]): 46.7%; viability at 0.5 µM (HCT-116 [26]): 100%; viability at 5 µM (HCT-116 [27]): 100%; Activity (Calf thymus DNA [28]): Active
CC1=CC(/C=C/c2ccc(OCCCc3ccc[n+](C)c3)cc2)=[N+]2C1=C(c1ccc(OCCCc3ccc[n+](C)c3)cc1)c1c(C)cc(/C=C/c3ccc(OCCCc4ccc[n+](C)c4)cc3)n1[B-]2(F)F.[I-].[I-].[I-],10,1.87 ×10⁴ /M,inactive,88.5,0,77.2,3.4,89,56.2,17.7,6,inactive,76.8,88.6,3.95,100,> 100,54.4,0.46,91,Activity (HCT-116 [17]): Dose-dependent effect; inhibition [21]: 54.6%; viability at 10 µM (HCT-116 [22]): 9.6%; viability at 10 µM (HCT-116 [23]): 88%; Activity (HCT-116 [24]): 32.5%; Activity (Calf thymus DNA [25]): 47.8%; viability at 0.5 µM (HCT-116 [26]): 100%; viability at 5 µM (HCT-116 [27]): 25%; Activity (Calf thymus DNA [28]): Active
